Experimental data taken from patent US4931498A, “Immobilized artificial membranes” (Purdue Research Foundation, priority 1988, dated 1990).
Square brackets hold non-standard residues; d marks the D form. Ends that are not written are not given here. Peptide text beside a SMILES is read from it.

What was measured:
[1] = HPLC elution on Nucleosil-lecithin (immobilized artificial membrane) column; type: physicochemical; design: Elution times: unit not given beside the values; conditions: for Elution Volumes on Nucleosil-Lecithin, Mobile Phase 0.1% TFA: peptides dissolved in 0.1% aqueous TFA; for Elution Volumes on Nucleosil-Lecithin, Mobile Phase 0.1% TFA / Elution Volumes on Nucleosil-Lecithin, Mobile Phase PBS: detection 220 nm; for Elution Volumes on Nucleosil-Lecithin, Mobile Phase PBS: mobile phase isotonic phosphate buffered saline (pH 7.34); for Elution times: Nucleosil-lecithin column, mobile phase isotonic buffered saline at 1.0 ml/min, detection at 260 nm
Description: A 4 mm×100 mm HPLC column was packed with about one gram of Nucleosil-lecithin (pooled from several preparations above) using a Shandon column packer. Excess Nucleosil-lecithin (1.45 grams) was suspended in 15 ml of degassed methanol and then sonicated 5 minutes to assure particle dispersion. The dispersion was transferred to the 30-ml slurry reservoir on the column packer, and 15 ml of degassed methanol was added to fill the reservoir. The column was packed at 4500 psi.
The HPLC elution properties of the Nucleosil-lecithin column were evaluated.
Separation of 2-deoxycytidine (C), 2-deoxyuridine (U), 2'-deoxyguanosine (G) and 2'-deoxyadenosine (A) was effected using isotonic buffered saline as the mobile phase at 1.0 ml/min with detection at 260 nm. Elution times were as follows: C - 1.175; U - 1.465; G - 1.730; and A - 2.090.
FIG. 11 is a chromatogram for a mixture of Peptides I and II, dissolved in 0.1% aqueous trifluoracetic acid (TFA) and detected at 220 nm. In FIG. 11 the mobile phase was isotonic phosphate buffered saline (pH 7.34). FIG. 12 is a chromatogram for a mixture of Peptides III and IV, dissolved in 0.1% aqueous trifluoracetic acid (TFA) and detected at 220 nm. In FIG. 12 the mobile phase was 0.1% TFA.

[2] = HPLC elution on cholesterol-loaded Nucleosil-lecithin column; type: physicochemical; conditions: for Elution Volumes by Mobile Phase, H2O: mobile phase water
Description: The Nucleosil-lecithin chromatography support material was then "loaded" with cholesterol in situ using the following procedure.
A solution of 80 ml of 1 mg/ml cholesterol in MeOH:isopropanol/8:2 was pumped through the Nucleosil-lecithin using a Bendex pump. […] Approximately […] was recovered in the effluent showing that 40 mg of cholesterol was loaded onto the Nucleosil-lecithin column. This is approximately 50% by weight of the bonded phase. The Nucleosil-lecithin/cholesterol column containing MeOH/isopropanol was attached to the HPLC and eluted with water (approximately 100 ml). The mobile phase was changed to 0.1% TFA and peptides dissolved in 0.1% TFA were injected to determine the elution volumes. The mobile phase was changed to water and the peptides were reinjected after the column was equilibrated with 100 ml of water to determine the elution volumes. The column was washed with PBS buffer (100 ml) and the peptides were again injected to determine elution volumes using PBS as the mobile phase.

Row | Compound | Elution Volumes on Nucleosil-Lecithin, Mobile Phase 0.1% TFA [1] | Elution Volumes on Nucleosil-Lecithin, Mobile Phase PBS [1] | Elution Volumes by Mobile Phase, 0.1% TFA [2] | Elution Volumes by Mobile Phase, PBS [2] | Elution Volumes by Mobile Phase, H2O [2] | Elution times [1]
1 | YGSTWPGC [Peptide I, NH2 Y-G-S-T-W-P-G-C--COOH] | 7.3 | 13.1 | 5.3 | 7.9 | 7.3 | 
2 | CSCC[C@@H](N)C(=O)N1CCC[C@@H]1C(=O)N[C@H](CO)C(=O)N[C@H](Cc1c[nH]c2ccccc12)C(=O)N[C@@H](C(=O)NCC(=O)NCC(=O)N[C@H](CS)C(=O)O)[C@H](C)O [Peptide VIII, NH2 d,M-d,P-d,S-d,W-d,T-G-G-d,C--COOH] (H-[dM][dP][dS][dW][dT]GG[dC]-OH) |  |  | 5.0 | 6.5 | 3.0 | 
3 | YGSTWPG [Peptide II, NH2 Y-G-S-T-W-P-G-COOH] | 3.1 | 7.6 | 2.7 | 4.8 | 6.6 | 
4 | Nc1ccn([C@H]2C[C@H](O)[C@@H](CO)O2)c(=O)n1 [2-deoxycytidine] |  |  |  |  |  | 1.175
5 | Nc1ncnc2c1ncn2[C@H]1C[C@H](O)[C@@H](CO)O1 [2'-deoxyadenosine] |  |  |  |  |  | 2.090
6 | CGYGSTWP [Peptide V, NH2 C-G-Y-G-S-T-W-P--COOH] |  |  | 6.6 |  |  | 

The next lines start with the values.

Row | Elution Volumes on Nucleosil-Lecithin, Mobile Phase 0.1% TFA [1] | Elution Volumes on Nucleosil-Lecithin, Mobile Phase PBS [1] | Elution Volumes by Mobile Phase, 0.1% TFA [2] | Elution Volumes by Mobile Phase, PBS [2] | Elution Volumes by Mobile Phase, H2O [2] | Elution times [1] | Compound
7 | 9.4 | 10.0 | 5.3 | 6.9 | 9.2 |  | MPSWTGGC [Peptide III, NH2 M-P-S-W-T-G-G-C--COOH]
8 |  | 5.8 | 1.0 | 4.2 | 0.8 |  | HIFNQ-NH2 [Peptide VI, NH2 H-I-F-N-QNH2]
9 |  |  |  |  |  | 1.730 | Nc1nc2c(ncn2[C@H]2C[C@H](O)[C@@H](CO)O2)c(=O)[nH]1 [2'-deoxyguanosine]
10 |  | 3.8 | 1.3 | 3.2 | 0.8 |  | Ac-HIFNQ-NH2 [Peptide VII, NacH-I-F-N-QNH2]
11 |  |  |  |  |  | 1.465 | O=c1ccn([C@H]2C[C@H](O)[C@@H](CO)O2)c(=O)[nH]1 [2-deoxyuridine]
12 | 4.1 | 4.2 | 2.9 | 5.0 | 4.9 |  | MPSWTGG [Peptide IV, NH2 M-P-S-W-T-G-G-COOH]
